# Laboratory results reported in patent US20190054067A1, “COMPOSITIONS AND METHODS FOR TREATING COMPULSIVE-LIKE BEHAVIOR IN A SUBJECT” (UNIVERSITY OF THE SCIENCES, priority 2016, published 2019).
# Key:
# [1] = system: compulsive-like BIG male mice; experiment: compulsive-like marble burying (MB) behavior; assay type: in vivo, Mus musculus; conditions: for marble-burying behavior (marbles at least 2/3 buried) vs control: acute, 2 h after administration; for suppression of MB vs control: chronic, fifth week (day 31), 2 h after injection
# Method: Compulsive-like BIG male mice, Mus musculus, were raised on wood shavings in polypropylene cages (27×17×12 cm) under controlled temperature (22±1° C.) and light (12:12 light-dark cycle) with free access to food (Purina Mills, Lab Diet Mouse Diet #5015, St. Louis, Mo.) and water. Animals were approximately 12-16 weeks of age at the start of each experiment.
# Deformylflustrabromine hydrochloride (dFBr; Abcam Biochemicals) was dissolved in physiological saline (pH=6.7) to yield final doses of 2.0 mg/kg (0.27 mg/mL), 4 mg/kg (0.53 mg/mL) and 6 mg/kg (0.80 mg/mL). Saline was used as a vehicle control (0 mg/kg). A mouse of 40 g received an injection volume of 0.3 mL. Injection volumes were proportionally adjusted according to the body weight of individual animals.
# Acute Study: Male BIG mice were divided into four treatment groups comprising vehicle (sterile saline), 2 mg/kg, 4 mg/kg and 6 mg/kg. Animals in each group (n=12 per group) were tested for nesting on day 1, MB on day 3 and open field (OF) on day 5. On the first day of testing animals randomly received dFBr or vehicle subcutaneously and in subsequent tests received the same dose. Days 2 and 4 were employed to avoid any residual effects of dFBr from previous administration. For nesting, data were collected after 1, 2, 3, 4, 5 and 24 h due to the progressive nature of the NB (The BIG mice typically get excited and indulge in excessive and repetitive NB when introduced to cotton for the first 3-4 h in the light cycle. This excessive and repetitive nesting activity resumes again in the dark cycle). MB and OF behavior was performed 2 h after dFBr administration (FIG. 1).
# Chronic Study; Since the foundation of the animal model was established through effective reversal of compulsive-like NB and MB behaviors by chronic fluoxetine treatment, a chronic regimen was also conducted to establish the sustained and long term effects of dFBr on NB and MB. Animals belonging to 0, 2, 4 and 6 mg/kg dose group (n=12 per group) received single subcutaneous injection of dFBr or saline daily for 32 days. NB, MB and OF behaviors were assessed in the final week (weeks 5) after dFBr administration (NB after 1, 2, 3, 4, 5 and 24 h, and MB after 2 h of drug injection). NB was performed on day 30, MB on day 31 and OF on day 32 (FIG. 1).
# The marble-burying test is an effective test for determining compulsive-like behavior in mice. […] Two hours after dFBr administration, compulsive-like male mice were individually introduced to a polypropylene cage (37×21×14 cm) containing 20 glass marbles (10 mm in diameter) evenly spaced on 5 cm deep wood chip bedding without access to food or water for 20 min. Testing was carried out in the testing room separate from the housing room. The total number of marbles buried at least ⅔ in the 20-min period was quantified as compulsive-like digging behavior. After the 20-min test, the animals were returned to their home cages.
# Statistical analysis was performed in Graphpad Prism (GraphPad Software, Inc) and Statistical Analysis System Software (Version 9.4, Cary, N.C.). Nest-building (grams of cotton), marble burying (number of marbles at least ⅔ buried) and open field measures (time in center and total distance travelled) were expressed as the mean±standard error of the mean (SEM). The nest building data were shown as grams of cotton used, whereas the statistical analysis was conducted on the square-root transformed nesting scores in order to normalize the data (Bult & Lynch, 2000, Behavior Genetics 30:193-206). Nesting scores at different time points, marble burying and open field results were analyzed by one-way analysis of variance (ANOVA), whereas overall drug and drug by time interaction effect between 0-5 hours was done by two-way analysis of variance (ANOVA). Pairwise comparisons for significant differences were tested by the post-hoc Bonferroni multiple comparison test. A probability level of p<0.05 was used as an index of statistical significance in all cases.
# [2] = target: high sensitivity (HS) α4β2 receptors (Homo sapiens, UniProt P17787+P43681); conditions: cited from earlier work
# Chain of high sensitivity (HS) α4β2 receptors (P43681 29-627 limits assumed): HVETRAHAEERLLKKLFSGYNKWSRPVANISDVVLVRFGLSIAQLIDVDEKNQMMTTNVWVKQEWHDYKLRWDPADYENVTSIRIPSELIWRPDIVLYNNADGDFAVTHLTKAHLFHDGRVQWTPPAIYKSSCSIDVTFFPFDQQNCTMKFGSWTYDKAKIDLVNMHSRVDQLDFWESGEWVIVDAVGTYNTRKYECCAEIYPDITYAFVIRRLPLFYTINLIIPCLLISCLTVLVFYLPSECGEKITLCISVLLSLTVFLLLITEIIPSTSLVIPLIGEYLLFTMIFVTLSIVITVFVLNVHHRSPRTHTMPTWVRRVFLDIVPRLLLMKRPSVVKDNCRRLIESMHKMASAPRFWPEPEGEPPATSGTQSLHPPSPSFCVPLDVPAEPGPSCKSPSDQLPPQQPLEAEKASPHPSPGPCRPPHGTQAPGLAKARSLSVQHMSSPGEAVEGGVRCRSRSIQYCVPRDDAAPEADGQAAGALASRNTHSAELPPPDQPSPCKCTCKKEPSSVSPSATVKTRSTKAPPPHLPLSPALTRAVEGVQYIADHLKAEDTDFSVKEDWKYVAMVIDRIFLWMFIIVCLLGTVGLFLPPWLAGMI
# Chain of high sensitivity (HS) α4β2 receptors (P17787 26-502): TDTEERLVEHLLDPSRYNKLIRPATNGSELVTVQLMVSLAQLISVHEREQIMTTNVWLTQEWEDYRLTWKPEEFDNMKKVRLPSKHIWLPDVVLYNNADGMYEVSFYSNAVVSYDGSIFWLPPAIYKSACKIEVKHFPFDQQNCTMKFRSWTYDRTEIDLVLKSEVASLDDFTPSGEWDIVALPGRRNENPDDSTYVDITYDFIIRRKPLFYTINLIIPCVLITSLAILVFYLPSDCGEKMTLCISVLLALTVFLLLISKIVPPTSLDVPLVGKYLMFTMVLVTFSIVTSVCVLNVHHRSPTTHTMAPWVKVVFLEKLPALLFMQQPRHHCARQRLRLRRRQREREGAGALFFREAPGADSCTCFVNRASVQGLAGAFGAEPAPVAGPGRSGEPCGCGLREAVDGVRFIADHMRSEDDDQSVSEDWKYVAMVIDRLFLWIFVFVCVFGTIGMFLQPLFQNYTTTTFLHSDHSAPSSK
# [3] = cited from earlier work
smiles,measurement,setting,value
"C=CC(C)(C)c1[nH]c2cc(Br)ccc2c1CCNC [dFBr, 2-[6-bromo-2-(2-methylbut-3-en-2-yl)-1H-indol-3-yl]-N-methylethanamine]",marble-burying behavior (marbles at least 2/3 buried) vs control,[1]; 2 mg/kg s.c.,decreased marble-burying behavior
same,marble-burying behavior (marbles at least 2/3 buried) vs control,[1]; 4 mg/kg s.c.,decreased marble-burying behavior
same,marble-burying behavior (marbles at least 2/3 buried) vs control,[1]; 6 mg/kg s.c.,decreased marble-burying behavior
same,reduction of MB behavior vs control,"[1]; chronic regimen, 2 mg/kg, 2 h time point",not significant
same,suppression of MB vs control,[1]; 4 mg/kg,maximum suppression of MB
same,suppression of MB vs control,[1]; 6 mg/kg,maximum suppression of MB
same,potentiation of acetylcholine-induced whole cell responses,[2],370%
same,EC50,[2]; read-out: EC50 of potentiation,40 µM
same,amount reaching the cerebrospinal fluid,[3]; after 90 min of subcutaneous administration,around 36%
same,time of peak levels in the cerebrospinal fluid,"[3]; rats, after administration",90 min
